# Measurements as given in ChEMBL document CHEMBL1138036, “Simplified cyclic analogues of bastadin-5. Structure-activity relationships for modulation of the RyR1/FKBP12 Ca2+ channel complex” (J Med Chem, 2006).
# Target: RyR1/FKBP12 (Oryctolagus cuniculus)
# Assay: Antagonist like activity at skeletal junction sarcoplasmic reticulum RyR1/FKBP12 complex assessed as decrease in [3H]ryanodine binding
row,IC50 [µM],SMILES
1,47,O=C1CCNC(=O)CCc2cc(Br)c(cc2Br)Oc2cc(cc(Br)c2O)CCN1
2,63,[N-]=[N+]=Nc1cc2ccc1Oc1cc(cc(Br)c1O)CCNC(=O)CC2

# Target: RyR1/FKBP12 (Oryctolagus cuniculus)
# Assay: Agonist like activity at skeletal junction sarcoplasmic reticulum RyR1/FKBP12 complex assessed as increase in [3H]ryanodine binding
row,SMILES,EC50 [µM]
1,[N-]=[N+]=Nc1cc2ccc1Oc1cc(cc(Br)c1O)CCNC(=O)CCNC(=O)CC2,20
2,O=C1CCc2ccc(cc2)Oc2cc(cc(Br)c2O)CCN1,> 100
3,Nc1cc2ccc1Oc1cc(cc(Br)c1O)CCNC(=O)CCNC(=O)CC2,21
4,Nc1cc2ccc1Oc1cc(cc(Br)c1O)CCNC(=O)CC2,33
5,O=C1CCNC(=O)CCc2ccc(c([N+](=O)[O-])c2)Oc2cc(cc(Br)c2O)CCN1,24
6,COC(=O)c1cc(I)ccc1N=[N+]=[N-],> 100
7,[N-]=[N+]=Nc1ccc(I)cc1C(=O)NCCCC[C@H]1CC(=O)NCCc2cc(Br)c(O)c(c2)Oc2ccc(cc2Br)CCC(=O)N1,> 100
8,[N-]=[N+]=Nc1ccc(I)cc1C(=O)NCCCC[C@H]1CC(=O)NCCc2cc(Br)c(O)c(c2)Oc2cc(Br)c(cc2Br)CCC(=O)N1,6.5
9,O=C1CCc2ccc(c(I)c2)Oc2cc(cc(Br)c2O)CCN1,28.6
10,O=C1CCc2cc(Br)c(cc2Br)Oc2cc(cc(Br)c2O)CCN1,> 100
11,O=C1CCc2ccc(c([N+](=O)[O-])c2)Oc2cc(cc(Br)c2O)CCN1,20.9
12,O=C1CCc2ccc(c(Br)c2)Oc2cc(cc(Br)c2O)CCN1,10.9
